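Grown in 96-well plates, cells were treated for 48 hours with each compound at five concentrations. Insufficient inhibition: endpoint recorded as highest concentration tested. GI50 marks 50% less growth.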 Calls of active or inactive are those of the source. Cut-off read from the data, not from the text of the source: active = GI50 up to about 1.1 µM and inactive = higher. Where a SMILES comes first, the peptide text is derived from it. [ ]: non-standard residue; d: D form. The star is where a group is joined. ξ: configuration not given here. NMeF = CN[C@@H](Cc1ccccc1)C(=O)O; NMeV = CN[C@H](C(=O)O)C(C)C; ξNMeN = CNC(CC(N)=O)C(=O)O; NMeA = CN[C@@H](C)C(=O)O; ξNMeV = CNC(C(=O)O)C(C)C; Boc = CC(C)(C)OC(=O)*
Columns and labels:
Test in all cases: growth of human tumour cells (NCI), 48 h
HCT-116 = system: HCT-116
COLO 205 = system: COLO 205
OVCAR-5 = system: OVCAR-5
UACC-62 = system: UACC-62
SW-620 = system: SW-620
786-0 = system: 786-0
M14 = system: M14
ACHN = system: ACHN
SN12C = system: SN12C
DLD-1 = system: DLD-1
T47D = system: T47D
UO-31 = system: UO-31
LOX IMVI = system: LOX IMVI
HOP-92 = system: HOP-92
SNB-75 = system: SNB-75
SK-MEL-2 = system: SK-MEL-2
MDA-N = system: MDA-N
NCI-H226 = system: NCI-H226
SR = system: SR
SK-OV-3 = system: SK-OV-3

Measured: GI50

O=C1/C(=C/c2ccc(O)c(O)c2)CCC/C1=C\c1ccc(O)c(O)c1
inactive: HCT-116 2.37 µM | COLO 205 7.03 µM | OVCAR-5 14 µM | UACC-62 2.86 µM | SW-620 2.45 µM | 786-0 3.31 µM | M14 4.8 µM | ACHN 2.69 µM | SN12C 4.41 µM | DLD-1 2.68 µM | T47D 3.87 µM | UO-31 2 µM | LOX IMVI 2.11 µM | HOP-92 2.98 µM | SNB-75 3.4 µM | SK-MEL-2 3.42 µM | MDA-N 3.13 µM | NCI-H226 5.6 µM | SR 1.58 µM | SK-OV-3 7.96 µM

N#CC(NNC(=O)Cc1ccccc1)c1ccc(O)cc1 (stereo unspecified)
inactive: HCT-116 > 100 µM | COLO 205 > 100 µM | OVCAR-5 > 100 µM | UACC-62 > 100 µM | SW-620 > 100 µM | 786-0 > 100 µM | M14 > 100 µM | ACHN > 100 µM | SN12C > 100 µM | DLD-1 > 100 µM | UO-31 > 100 µM | LOX IMVI > 100 µM | HOP-92 85.9 µM | SNB-75 28.2 µM | SK-MEL-2 > 100 µM | NCI-H226 > 100 µM | SR > 100 µM | SK-OV-3 > 100 µM

CC(C)NC(C)Cc1ccccc1 (stereo unspecified)
inactive: HCT-116 > 100 µM | COLO 205 > 100 µM | OVCAR-5 > 100 µM | UACC-62 > 100 µM | SW-620 > 100 µM | 786-0 > 100 µM | M14 > 100 µM | ACHN > 100 µM | SN12C > 100 µM | DLD-1 > 100 µM | UO-31 > 100 µM | LOX IMVI > 100 µM | HOP-92 > 100 µM | SNB-75 > 100 µM | SK-MEL-2 > 100 µM | NCI-H226 > 100 µM | SR > 100 µM | SK-OV-3 > 100 µM

COC(=O)[C@H](C)N(C)C(=O)C(CC(N)=O)N(C)C(=O)[C@H](Cc1ccccc1)N(C)C(=O)[C@@H]1CCCN1C(=O)[C@H](C(C)C)N(C)C(=O)C(C(C)C)N(C)C(=O)[C@@H](NC(=O)OC(C)(C)C)C(C)C (stereo partly specified) (Boc-V[ξNMeV][NMeV]P[NMeF][ξNMeN][NMeA]-OMe)
inactive: HCT-116 > 50 µM | COLO 205 > 50 µM | OVCAR-5 > 50 µM | UACC-62 > 50 µM | SW-620 > 50 µM | 786-0 > 50 µM | M14 > 50 µM | ACHN > 50 µM | SN12C > 50 µM | DLD-1 43.7 µM | T47D > 50 µM | UO-31 > 50 µM | LOX IMVI > 50 µM | HOP-92 29 µM | SNB-75 44 µM | SK-MEL-2 > 50 µM | MDA-N > 50 µM | NCI-H226 > 50 µM | SR 21.3 µM | SK-OV-3 > 50 µM

Source: ChEMBL document CHEMBL1201862, “PubChem BioAssay data set” (2004)
